The record followed here is ChEMBL document CHEMBL1131044, “Discovery and preclinical pharmacology of a novel, potent, nonsteroidal estrogen receptor agonist/antagonist, CP-336156, a diaryltetrahydronaphthalene” (J Med Chem, 1998).

By IC50 is commonly meant the concentration at which inhibition is half-maximal. The low end stands for higher potency, the high end for lower potency. By ED50 is commonly meant the midpoint of the dose-response relation.

Data set [1] in a line: Oral bioavailability in rat. In kind it is ADME, organism-based. The settings on record: in vivo.
Another data set concerns the target Estrogen receptor (Rattus norvegicus, UniProt P06211+Q62986).
Data set [2] can be described thus: Oral bioavailability in cynomolgus monkey. The class given is ADME, organism-based, Macaca fascicularis. The settings on record: in vivo.
For data set [3], the species on record is Rattus norvegicus.
Description: In vivo prevention of bone loss in ovariectomised rats on oral administration
Data set [4] is filed under the species Rattus norvegicus. This is another data set of the same source.
Description: In vivo prevention of reduced serum cholesterol in ovariectomised rats on oral administration
A further data set is described as follows: in vivo. The settings on record: rat, po.

Consider `Oc1ccc2c(c1)CC[C@H](c1ccccc1)[C@@H]2c1ccc(OCCN2CCCC2)cc1` (stereo in doubt; 9) [LASOFOXIFENE], for which the bioavailability in data set [1] amounted to 60%. This compound yielded an IC50 on Estrogen receptor of 0.0111 µM.
Turning to `Oc1ccc2c(c1)CCC(c1ccccc1)=C2c1ccc(OCCN2CCCC2)cc1`, the IC50 at Estrogen receptor was determined as 0.0471 µM.
As for `Oc1ccc2c(c1)CC[C@H](c1ccccc1)[C@@H]2c1ccc(OCCN2CCCC2)cc1` (stereo in doubt; 14) [LASOFOXIFENE], the bioavailability in data set [2] was found to be 45%. Moreover, the F in data set [1] is on record as 62%. The same compound registered an IC50 at Estrogen receptor of 0.0113 µM. Moreover, the median effective dose (ED50) in the data set listed under Rattus norvegicus [3] was under 1 µg/day/kg; in the data set listed under Rattus norvegicus [4], 10 µg/day/kg.
In the case of `COc1ccc2c(c1)CCC(c1ccccc1)C2c1ccc(OCCN2CCCC2)cc1` (centres undefined), the concentration for half-maximal inhibition (IC50) on Estrogen receptor amounted to 0.132 µM.
Take `O=C(c1ccc(OCCN2CCCCC2)cc1)c1c(-c2ccc(O)cc2)sc2cc(O)ccc12` [RALOXIFENE]: the bioavailability amounted to 5% in data set [2] (read-out: Bioavailabiility) and 10% in the data set “in vivo”. For the same compound, the ED50 in the data set filed under Rattus norvegicus [3] and in the data set listed under Rattus norvegicus [4] was 500 µg/day/kg each time.
For the compound `COc1ccc2c(c1)CCC(c1ccccc1)=C2c1ccc(OCCN2CCCC2)cc1` [NAFOXIDINE], the 50% inhibitory concentration (IC50) against Estrogen receptor was found to be 0.0409 µM.
For the compound `Oc1ccc2c(c1)CC[C@H](c1ccccc1)[C@H]2c1ccc(OCCN2CCCC2)cc1`, in data set [1], the bioavailability came to 16%. Also, the IC50 against Estrogen receptor was determined as 0.00975 µM.
`Oc1ccc2c(c1)CC[C@@H](c1ccccc1)[C@H]2c1ccc(OCCN2CCCC2)cc1` yielded a bioavailability in data set [1] of 29%. The IC50 against Estrogen receptor was 0.27 µM. The ED50 in the data set filed under Rattus norvegicus [3] and in the data set listed under Rattus norvegicus [4] was over 500 µg/day/kg throughout.
In turn, `Oc1ccc2c(c1)OC(c1ccc(OCCN3CCCC3)cc1)C(c1ccccc1)=C2` (centres undefined) registered a bioavailability in data set [1] of 27%. The compound further had an IC50 on Estrogen receptor of 0.0111 µM. Further, the median effective dose (ED50) in the data set filed under Rattus norvegicus [3] and in the data set listed under Rattus norvegicus [4] was 175 µg/day/kg throughout.
